“And” between values parts separate entries of the source, which are not always exact repeats. Identical values can stand only once. Inconclusive results and toxic doses are left out.
Test system: P388 leukemia ip, CD2F1 mice, survival T/C
Test: NCI In Vivo Anticancer Drug Screen. Data for tumor model P388 Leukemia (intraperitoneal) in CD2F1 (CDF1) mice
Conditions: endpoint: median survival time, higher = longer survival
Summary of the method: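 Mice carrying the transplanted tumor received test compound or vehicle. Survival was recorded in each group, and the value is the treated-group measurement divided by that of the vehicle-treated control group.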

[1] = dose: 12.5 mg/kg/injection, schedule: Q01DX005 (ip), vehicle: Klucel (hydroxypropylcellulose) (HPC)
[2] = dose: 25.0 mg/kg/injection, schedule: Q01DX005 (ip), vehicle: Klucel (hydroxypropylcellulose) (HPC)
[3] = dose: 50.0 mg/kg/injection, schedule: Q01DX005 (ip), vehicle: Klucel (hydroxypropylcellulose) (HPC)
[4] = dose: 50.0 mg/kg/injection, schedule: Q01DX009 (ip), vehicle: saline
[5] = dose: 100.0 mg/kg/injection, schedule: Q01DX009 (ip), vehicle: saline

CCOC(=O)CCC(=O)Oc1cccc2c1C(=O)c1c(O)cccc1C2=O
T/C (dose: 60.0 mg/kg/injection, schedule: Q01DX005 (ip), vehicle: Klucel (hydroxypropylcellulose) (HPC)): 91 % of control | T/C (dose: 120.0 mg/kg/injection, schedule: Q01DX005 (ip), vehicle: Klucel (hydroxypropylcellulose) (HPC)): 95 % of control | T/C (dose: 240.0 mg/kg/injection, schedule: Q01DX005 (ip), vehicle: Klucel (hydroxypropylcellulose) (HPC)): 97 % of control

CCN(CC)CCNc1c(C)ccc2cccnc12
T/C (dose: 12.5 mg/kg/injection, schedule: Q01DX005 (ip), vehicle: saline): 102 % of control | T/C (dose: 25.0 mg/kg/injection, schedule: Q01DX005 (ip), vehicle: saline): 93 % of control | T/C (dose: 50.0 mg/kg/injection, schedule: Q01DX005 (ip), vehicle: saline): 100 % of control

COc1ccc([N+](=O)[O-])c(/C=C/C(=O)c2ccccn2)c1
T/C (dose: 12.5 mg/kg/injection, schedule: Q01DX009 (ip), vehicle: distilled water + Tween-80): 98 % of control | T/C (dose: 25.0 mg/kg/injection, schedule: Q01DX009 (ip), vehicle: distilled water + Tween-80): 100 % of control | T/C (dose: 50.0 mg/kg/injection, schedule: Q01DX009 (ip), vehicle: distilled water + Tween-80): 97 % of control | T/C (dose: 100.0 mg/kg/injection, schedule: Q01DX009 (ip), vehicle: distilled water + Tween-80): 98 % of control | T/C (dose: 200.0 mg/kg/injection, schedule: Q01DX009 (ip), vehicle: distilled water + Tween-80): 104 % of control

C[N+](C)([O-])CCCNc1c2ccccc2nc2cccc([N+](=O)[O-])c12
T/C (dose: 0.79 mg/kg/injection, schedule: Q01DX009 (ip), vehicle: saline): 108 % of control | T/C (dose: 1.56 mg/kg/injection, schedule: Q01DX009 (ip), vehicle: saline): 110 % of control | T/C (dose: 3.12 mg/kg/injection, schedule: Q01DX009 (ip), vehicle: saline): 117 % of control and 118 % of control

C/C(C(=O)c1ccccc1)=C1/NC(C)(C)CO1
T/C (dose: 60.0 mg/kg/injection, schedule: Q01DX005 (ip), vehicle: saline with Tween-80): 101 % of control | T/C (dose: 120.0 mg/kg/injection, schedule: Q01DX005 (ip), vehicle: saline with Tween-80): 103 % of control | T/C (dose: 240.0 mg/kg/injection, schedule: Q01DX005 (ip), vehicle: saline with Tween-80): 101 % of control

CN(C)c1ccc(C(=C2C=CC(=Nc3ccccc3)c3ccccc32)c2ccc(N(C)C)cc2)cc1
T/C (dose: 3.12 mg/kg/injection, schedule: Q01DX005 (ip), vehicle: Klucel (hydroxypropylcellulose) (HPC)): 100 % of control and 101 % of control | T/C (dose: 6.25 mg/kg/injection, schedule: Q01DX005 (ip), vehicle: Klucel (hydroxypropylcellulose) (HPC)): 100 % of control and 104 % of control and 112 % of control | T/C [1]: 111 % of control and 114 % of control and 120 % of control | T/C [2]: 115 % of control and 118 % of control

CC(C)CSc1nc2ccc(NC(=O)/C=C/C(=O)O)cc2s1
T/C (dose: 50.0 mg/kg/injection, schedule: Q01DX009 (ip), vehicle: Klucel (hydroxypropylcellulose) (HPC)): 95 % of control | T/C (dose: 100.0 mg/kg/injection, schedule: Q01DX009 (ip), vehicle: Klucel (hydroxypropylcellulose) (HPC)): 95 % of control

CC(O)CC1(c2ccccc2)CNC(=O)NC1=O (configuration not stated)
T/C (dose: 25.0 mg/kg/injection, schedule: Q01DX001 (ip), vehicle: Klucel (hydroxypropylcellulose) (HPC)): 94 % of control | T/C (dose: 50.0 mg/kg/injection, schedule: Q01DX001 (ip), vehicle: Klucel (hydroxypropylcellulose) (HPC)): 94 % of control | T/C (dose: 100.0 mg/kg/injection, schedule: Q01DX001 (ip), vehicle: Klucel (hydroxypropylcellulose) (HPC)): 99 % of control and 106 % of control | T/C (dose: 400.0 mg/kg/injection, schedule: Q01DX001 (ip), vehicle: Klucel (hydroxypropylcellulose) (HPC)): 92 % of control

O=C1NC(O)c2cc(Br)cc(Br)c2O1 (configuration not stated)
T/C [1]: 100 % of control | T/C [2]: 101 % of control | T/C [3]: 103 % of control

CCCn1c(C)nc2[nH]ncc2c1=O
T/C [3]: 100 % of control | T/C (dose: 100.0 mg/kg/injection, schedule: Q01DX005 (ip), vehicle: Klucel (hydroxypropylcellulose) (HPC)): 98 % of control | T/C (dose: 200.0 mg/kg/injection, schedule: Q01DX005 (ip), vehicle: Klucel (hydroxypropylcellulose) (HPC)): 92 % of control

CC(C)NCC(O)COc1ccccc1C1CC1 (configuration not stated)
T/C [4]: 106 % of control | T/C [5]: 104 % of control

Cc1c(C)c(=O)c2cc3c(=O)ccc(=O)c3cc2c1=O
T/C (dose: 12.5 mg/kg/injection, schedule: Q04DX003 (ip), vehicle: Klucel (hydroxypropylcellulose) (HPC)): 101 % of control | T/C (dose: 25.0 mg/kg/injection, schedule: Q04DX003 (ip), vehicle: Klucel (hydroxypropylcellulose) (HPC)): 96 % of control | T/C (dose: 50.0 mg/kg/injection, schedule: Q04DX003 (ip), vehicle: Klucel (hydroxypropylcellulose) (HPC)): 103 % of control

COc1cc2c(c(OC)c1O)-c1ccc(OC)c(=O)cc1[C@@H](NC(C)=O)CC2
T/C (dose: 10.0 mg/kg/injection, schedule: Q01DX009 (ip), vehicle: Klucel (hydroxypropylcellulose) (HPC)): 150 % of control and 175 % of control

[NH-]C(C[S-])C(=O)O.[NH-]C(C[S-])C(=O)O.[O]=[Mo]1[O][Mo](=[O])[O]1 (configuration not stated)
T/C [4]: 99 % of control | T/C [5]: 90 % of control | T/C (dose: 200.0 mg/kg/injection, schedule: Q01DX009 (ip), vehicle: saline): 104 % of control

Reference: PubChem BioAssay AID330 (DTP/NCI, 2004)
